{
  "source": "patent US20090247579A1",
  "about": "“2-[3H-THIAZOL-2-YLIDINEMETHYL]PYRIDINES AND RELATED COMPOUNDS AND THEIR USE” (CANCER RESEARCH TECHNOLOGY LIMITED, priority 2006, published 2009)",
  "key": {"CACO2": {"tested_on": "CACO2", "test": "Modified MTT assay, colon panel CACO2", "format": "cell-based", "details": "Homo sapiens, Caco-2, MMR proficient, p53 mut, read-out: MMR201 IC50", "experimental": "(§1) Relative drug sensitivities (Resistance Factor) and IC50 values were determined by a modified MTT assay (see, e.g., Mosmann, 1983; Plumb et al., 1989), as described below: • (1) Trypsinise a sub-confluent monolayer culture and collect cells in growth medium containing serum. Centrifuge the suspension (200 g, 5 minutes) to pellet cells, re-suspend in growth medium, and count cells. Dilute cells to a density of 5×10^3 cells/mL allowing 60 mL of cell suspension for 3 microtitre plates. Transfer cell suspension to a 10 cm petri dish, and with a multichannel pipette add 200 μL to each well of the central 10 columns of a flat bottomed 96-well plate (80 wells per plate) starting with column 2 and ending with column 11. Add 200 μL of growth medium to the 8 wells in columns 1 and 12. […] Pipette 6 mL of growth medium in to each of 7 universal containers (30 mL). Prepare 10 mL of the highest concentration of the drug and transfer 1.5 mL of this solution to the first universal container. Mix and then transfer 1.5 mL to the next universal container. Continue until the seventh universal container is reached. The concentrations should be chosen so that the highest concentration kills most of the cells and the lowest kills none of the cells."}, "LOVO (MSH2)": {"tested_on": "LOVO (MSH2)", "test": "Modified MTT assay, colon panel LOVO", "format": "cell-based", "details": "Homo sapiens, MMR deficient, p53 wt, read-out: MMR201 IC50", "experimental": "as §1"}, "[1]": {"tested_on": "HCT116 human colon tumour cell line grown as xenograft", "test": "Xenograft study, HCT116 in nude mice", "format": "in vivo", "details": "single bolus day 0, MMR201 1 or 2 mg/kg i.v. (tolerated doses), cisplatin 6 mg/kg i.p. (maximum tolerated dose)", "experimental": "(§2) For xenograft experiments, tumour cells were injected into the flanks of athymic nude mice and allowed to establish until palpable tumour could be detected. Following single bolus injection of drug, tumour growth was monitored using calliper measurement of tumour size and calculation of tumour volume.\n(§3) Cells in exponential phase of growth were harvested with trypsin and re-suspended in phosphate buffered saline. About 10^7 cells in a total volume of 200 μL of PBS were injected subcutaneously in the right flank of CD1 nude mice. They were used for experiments after about 7 to 10 days by which time the mean tumour diameter was about 0.5 cm.\n(§4) Mice were weighed and tumour volumes measured. The mice were randomised in groups of 6 and treated either with the drug or with the solvent alone. The drug was dissolved in DMSO and diluted in sterile PBS just before injection to give a final DMSO concentration of 1%. The drugs solution was prepared such that the injection volume was 5 μL per gram body weight. […]\n(§5) Mice were then weighed daily and tumour volumes estimated from two measurements of the diameter taken at a 90° angle. The volume was determined by the formula: v=D^3/6×π, where v=volume and D is the mean diameter. Results (Mean and SEM) are expressed as the relative tumour volume, which is the tumour volume on any given day divided by the initial tumour volume calculated for each mouse."}, "[2]": {"tested_on": "A2780/cp70 human ovarian, cisplatin resistant, cell line grown as xenograft", "test": "Xenograft study, A2780/cp70 in nude mice", "format": "in vivo", "details": "single bolus day 0, MMR201 1 mg/kg i.v. (tolerated dose), cisplatin 6 mg/kg i.p. (maximum tolerated dose)", "experimental": "as §2, §3, §4, §5"}, "p53": {"tested_on": "p53", "test": "Induction of p53 expression", "format": "cell-based", "details": "at doses that were shown to induce apoptosis"}},
  "data": [
    {"smiles": "CC[n+]1c(/C=C2\\Sc3oc4ccccc4c3N2C)ccc2cc(C)ccc21.[I-]", "note": "[MMR201]", "values": [
      {"measurement": "IC50", "setting": "CACO2", "value": "474 ± 16", "unit": "nM"},
      {"measurement": "IC50", "setting": "LOVO (MSH2)", "value": "431 ± 11.2", "unit": "nM"},
      {"measurement": "Tumour growth (relative tumour volume) of HCT116 xenograft", "setting": "[1]", "value": "inhibits growth"},
      {"measurement": "Tumour growth (relative tumour volume) of A2780/cp70 xenograft", "setting": "[2]", "value": "can inhibit growth"},
      {"measurement": "Induction of p53 expression", "setting": "p53", "value": "does not induce expression of p53"}
    ]}
  ]
}
